The results in this text go back to PMC8708872, “Discovery of a Novel Template, 7-Substituted 7-Deaza-4′-Thioadenosine Derivatives as Multi-Kinase Inhibitors” (Pharmaceuticals, 2021).

One series addresses T1, DYRK1B (Homo sapiens, UniProt Q9Y463).
T1 construct: purchased Eurofins DiscoverX Corporation
As to the kind of experiment: Kinase inhibition profile, KINOMEscan 11-point dose response. To be noted: for IC50: 11-point 3-fold serial dilution. It counts as binding.

Another series concerns the target T2, TRKA (Homo sapiens, UniProt P04629).
T2 construct: purchased Eurofins DiscoverX Corporation
The series is described as above. The series is classed as binding. To be noted: for IC50: 11-point 3-fold serial dilution.

For a further series, the target named is T3, DYRK1A (Homo sapiens, UniProt Q13627).
T3 construct: purchased Eurofins DiscoverX Corporation
The series is described as above. The series is classed as binding. To be noted: for IC50: 11-point 3-fold serial dilution.

The next series deals with SNU638. In words: SRB cell proliferation inhibition assay. To be noted: SNU-638, human stomach cancer cells, 72 h. It counts as cell-based. Here is the method: (§1) Human lung cancer cells (A549), colorectal cancer (HCT116) cells, breast cancer cells (MDA-MB-231), liver cancer cells (SK-HEP-1), and prostate cancer cells (PC-3) were purchased from the American Type Culture Collection (Manassas, VA, USA). Human gastric cancer cells (SNU-638) were purchased from the Korean Cell Line Bank (Seoul, Korea). Cells were cultured in medium (Dulbecco’s modified Eagle’s medium for MDA-MB-231 and SK-HEP-1 cells; Roswell Park Memorial Institute 1640 for A549, HCT116, SNU-638, PC-3 cells) supplemented with penicillin-streptomycin and 10% fetal bovine serum at 37 °C in a humidified incubator with 5% carbon dioxide. Cells were seeded at a density of 4–7 × 10^4 cells/mL in 96-well culture plates, and then treated with indicated compounds for 72 h. At the end of the experiment, cells were fixed with 10% trichloroacetic acid (TCA) solution and subjected to sulforhodamine B (SRB) assay to determine cell proliferation. The percentage of cell proliferation was calculated with the following formula:Cell proliferation (%) = 100 × [(A treated − A zero day)/(A control − A zero day)], where A is the average absorbance. The IC50 values were calculated through non-linear regression analysis using TableCurve 2D v5.01 (Systat Software Inc., San Jose, CA, USA). All experiments were performed in triplicate and data shown are representative of two or three independent experiments.

The subject of a further series is SK-HEP-1. In words: SRB cell proliferation inhibition assay. The series is classed as cell-based. To be noted: SK-HEP1, human liver cancer cells, 72 h. Here is the method: as §1
For a further series, the system named is PC-3. In words: SRB cell proliferation inhibition assay. To be noted: human prostate cancer cells, 72 h. The series is classed as cell-based. As for the experimental part:
as §1

The next series concerns HCT116. In words: SRB cell proliferation inhibition assay. It counts as cell-based. To be noted: HCT-116, human colon cancer cells, 72 h. Here is the method:
as §1

A further series deals with MDA-MB-231. As to the kind of experiment: SRB cell proliferation inhibition assay. The series is classed as cell-based. To be noted: human breast cancer cells, 72 h. As for the experimental part: as §1
In the next series the test system is A549. As to the kind of experiment: SRB cell proliferation inhibition assay. It counts as cell-based. To be noted: human lung cancer cells, 72 h. As for the experimental part:
as §1

The target of the next series is T4, CK1δ (Homo sapiens, UniProt P48730).
T4 construct: purchased Eurofins DiscoverX Corporation
As to the kind of experiment: Kinase inhibition profile, KINOMEscan 11-point dose response. To be noted: for IC50: 11-point 3-fold serial dilution; for Ki: by Cheng-Prusoff equation. The series is classed as binding.

For another series, the target named is T5, CYP2C19 (Homo sapiens, UniProt P33261).
T5 construct: Human liver microsomes (0.25 mg/mL); from tissue; host or cells: human liver microsomes
In words: CYP inhibition assay. To be noted: human, human liver microsomes, pH 7.4, probe S-mephenytoin 100 μM (in a cocktail of five substrates); inhibitor 0.1 μM; read-out: Percentage of enzyme remaining after inhibition, CYP2C19. The series is classed as in vitro ADME. As for the experimental part:
(§2) Human liver microsomes (0.25 mg/mL), 0.1 M phosphate buffer (pH 7.4), a cocktail of five […] substrates (Phenacetin 50 μM, Diclofenac 10 μM, S-mephenytoin 100 μM, Dextromethorphan 5 μM, Midazolam 2.5 μM), and test compound (10 μM concentration) was pre-incubated for 5 min at 37 °C. NADPH generation system solution was added and incubated for 15 min at 37 °C. In order to terminate the reaction, acetonitrile solution containing an internal standard (Terfenadine) was added and centrifuged for 5 min (14,000× g […], 4 °C). The supernatant was injected into the LC-MS/MS system to analyze the metabolites of the substrates simultaneously. Metabolites of each substrate produced during the reaction were analyzed using the Shimadzu Nexera XR system and TSQ vantage (Thermo). Kinetex C18 column (2.1 × 100 mm, 2.6 μm particle size; Phenomenex, USA) was used for HPLC. The mobile phase used contained 0.1% formic acid in distilled water (A) and 0.1% formic acid containing acetonitrile (B). The generated metabolites were quantified using MRM (Multiple Reaction Monitoring) and Xcalibur (version 1.6.1) was used for data analysis.

The target of another series is T6, CYP1A2 (Homo sapiens, UniProt P05177).
T6 construct: Human liver microsomes (0.25 mg/mL); from tissue; host or cells: human liver microsomes
As to the kind of experiment: CYP inhibition assay. It counts as in vitro ADME. To be noted: human, human liver microsomes, pH 7.4, probe Phenacetin 50 μM (in a cocktail of five substrates); inhibitor 0.1 μM; read-out: Percentage of enzyme remaining after inhibition, CYP1A2. As for the experimental part: as §2

A further series deals with T7, CYP2C9 (Homo sapiens, UniProt P11712).
T7 construct: Human liver microsomes (0.25 mg/mL); from tissue; host or cells: human liver microsomes
As to the kind of experiment: CYP inhibition assay. It counts as in vitro ADME. To be noted: human, human liver microsomes, pH 7.4, probe Diclofenac 10 μM (in a cocktail of five substrates); inhibitor 0.1 μM; read-out: Percentage of enzyme remaining after inhibition, CYP2C9. As for the experimental part: as §2

The subject of the next series is KM12. As to the kind of experiment: Antiproliferative activity against KM12. It counts as cell-based. To be noted: Homo sapiens, colon cancer cell line highly expressing NTRK1/2/3 and DYRK3, read-out: IC50 cell growth of KM12.
The subject of a further series is ACHN. In words: Antiproliferative activity against ACHN. The series is classed as cell-based. To be noted: Homo sapiens, renal cancer cell line expressing CK1δ and DYRK2, read-out: IC50 cell growth of ACHN.

Structures are written as SMILES.

T4 sequence (P48730 whole entry): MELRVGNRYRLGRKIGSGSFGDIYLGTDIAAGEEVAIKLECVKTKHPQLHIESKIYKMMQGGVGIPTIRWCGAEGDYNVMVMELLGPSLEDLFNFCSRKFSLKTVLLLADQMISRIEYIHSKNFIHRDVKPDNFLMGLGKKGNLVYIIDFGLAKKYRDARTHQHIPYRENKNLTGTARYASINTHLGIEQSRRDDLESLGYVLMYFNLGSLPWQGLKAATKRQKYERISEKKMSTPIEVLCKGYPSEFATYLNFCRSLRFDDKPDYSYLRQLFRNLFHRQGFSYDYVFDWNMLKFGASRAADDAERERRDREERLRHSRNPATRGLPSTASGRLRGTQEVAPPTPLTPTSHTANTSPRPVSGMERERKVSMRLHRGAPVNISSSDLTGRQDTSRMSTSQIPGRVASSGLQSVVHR
T1 sequence (Q9Y463 whole entry): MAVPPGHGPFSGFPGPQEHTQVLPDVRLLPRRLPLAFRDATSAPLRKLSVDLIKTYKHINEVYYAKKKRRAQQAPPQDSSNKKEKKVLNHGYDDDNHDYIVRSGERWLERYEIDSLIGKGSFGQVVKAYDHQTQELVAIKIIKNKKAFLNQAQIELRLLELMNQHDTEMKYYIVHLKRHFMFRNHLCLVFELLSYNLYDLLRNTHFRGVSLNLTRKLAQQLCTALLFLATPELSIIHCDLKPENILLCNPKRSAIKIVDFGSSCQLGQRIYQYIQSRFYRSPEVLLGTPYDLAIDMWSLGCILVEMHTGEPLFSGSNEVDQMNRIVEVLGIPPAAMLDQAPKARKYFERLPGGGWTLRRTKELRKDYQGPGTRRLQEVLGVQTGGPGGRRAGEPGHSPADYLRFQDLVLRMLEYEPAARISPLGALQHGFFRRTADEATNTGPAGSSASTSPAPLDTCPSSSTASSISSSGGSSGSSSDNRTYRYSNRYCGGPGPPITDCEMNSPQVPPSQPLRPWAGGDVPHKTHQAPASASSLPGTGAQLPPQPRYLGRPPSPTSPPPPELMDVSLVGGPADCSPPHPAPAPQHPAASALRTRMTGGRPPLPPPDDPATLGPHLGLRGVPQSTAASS
T2 sequence (P04629 33-796): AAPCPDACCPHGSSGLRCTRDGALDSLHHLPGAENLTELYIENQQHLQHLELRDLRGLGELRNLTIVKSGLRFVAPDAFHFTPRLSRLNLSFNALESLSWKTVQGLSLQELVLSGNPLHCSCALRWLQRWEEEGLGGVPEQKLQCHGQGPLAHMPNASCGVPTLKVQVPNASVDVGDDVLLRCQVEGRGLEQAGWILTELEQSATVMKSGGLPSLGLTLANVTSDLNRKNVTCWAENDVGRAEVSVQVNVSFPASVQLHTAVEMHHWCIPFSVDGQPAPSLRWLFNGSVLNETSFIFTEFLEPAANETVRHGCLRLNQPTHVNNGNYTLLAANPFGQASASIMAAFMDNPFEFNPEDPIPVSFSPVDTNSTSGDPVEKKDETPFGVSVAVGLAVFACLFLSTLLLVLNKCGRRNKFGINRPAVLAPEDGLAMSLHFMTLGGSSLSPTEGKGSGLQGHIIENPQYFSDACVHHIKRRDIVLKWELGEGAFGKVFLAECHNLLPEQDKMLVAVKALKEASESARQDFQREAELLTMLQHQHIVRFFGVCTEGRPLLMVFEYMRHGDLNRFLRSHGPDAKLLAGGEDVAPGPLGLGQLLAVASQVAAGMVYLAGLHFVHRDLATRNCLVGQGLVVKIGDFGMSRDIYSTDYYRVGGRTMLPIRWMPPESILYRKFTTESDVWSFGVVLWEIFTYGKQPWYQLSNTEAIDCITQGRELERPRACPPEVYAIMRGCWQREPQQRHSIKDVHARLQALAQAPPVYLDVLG
T7 sequence (P11712 whole entry): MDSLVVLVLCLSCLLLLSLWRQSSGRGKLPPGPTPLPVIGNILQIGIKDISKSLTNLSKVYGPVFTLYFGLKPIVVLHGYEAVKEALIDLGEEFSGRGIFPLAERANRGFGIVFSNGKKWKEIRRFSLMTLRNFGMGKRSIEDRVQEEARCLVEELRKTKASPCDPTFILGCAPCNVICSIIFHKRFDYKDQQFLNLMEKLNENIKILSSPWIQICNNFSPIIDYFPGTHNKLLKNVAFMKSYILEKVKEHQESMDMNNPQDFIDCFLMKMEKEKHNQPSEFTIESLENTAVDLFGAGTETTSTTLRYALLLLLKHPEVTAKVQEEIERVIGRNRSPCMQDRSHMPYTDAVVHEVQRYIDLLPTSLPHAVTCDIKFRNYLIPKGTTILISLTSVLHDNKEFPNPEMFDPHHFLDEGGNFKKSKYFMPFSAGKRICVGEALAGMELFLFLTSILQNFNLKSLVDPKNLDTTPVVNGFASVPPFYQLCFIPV
T5 sequence (P33261 whole entry): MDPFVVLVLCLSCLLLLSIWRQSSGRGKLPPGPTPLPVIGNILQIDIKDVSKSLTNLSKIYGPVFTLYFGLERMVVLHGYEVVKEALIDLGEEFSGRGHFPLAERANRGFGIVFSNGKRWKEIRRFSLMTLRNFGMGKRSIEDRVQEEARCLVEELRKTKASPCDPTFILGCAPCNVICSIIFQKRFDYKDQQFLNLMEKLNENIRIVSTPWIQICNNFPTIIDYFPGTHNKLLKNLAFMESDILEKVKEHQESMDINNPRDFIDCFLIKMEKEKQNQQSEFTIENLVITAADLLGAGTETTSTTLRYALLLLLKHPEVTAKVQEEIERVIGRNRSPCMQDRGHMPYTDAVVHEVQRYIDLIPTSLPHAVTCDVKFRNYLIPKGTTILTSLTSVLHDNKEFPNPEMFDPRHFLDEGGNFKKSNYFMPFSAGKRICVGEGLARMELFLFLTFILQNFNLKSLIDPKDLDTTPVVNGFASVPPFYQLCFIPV
T6 sequence (P05177 whole entry): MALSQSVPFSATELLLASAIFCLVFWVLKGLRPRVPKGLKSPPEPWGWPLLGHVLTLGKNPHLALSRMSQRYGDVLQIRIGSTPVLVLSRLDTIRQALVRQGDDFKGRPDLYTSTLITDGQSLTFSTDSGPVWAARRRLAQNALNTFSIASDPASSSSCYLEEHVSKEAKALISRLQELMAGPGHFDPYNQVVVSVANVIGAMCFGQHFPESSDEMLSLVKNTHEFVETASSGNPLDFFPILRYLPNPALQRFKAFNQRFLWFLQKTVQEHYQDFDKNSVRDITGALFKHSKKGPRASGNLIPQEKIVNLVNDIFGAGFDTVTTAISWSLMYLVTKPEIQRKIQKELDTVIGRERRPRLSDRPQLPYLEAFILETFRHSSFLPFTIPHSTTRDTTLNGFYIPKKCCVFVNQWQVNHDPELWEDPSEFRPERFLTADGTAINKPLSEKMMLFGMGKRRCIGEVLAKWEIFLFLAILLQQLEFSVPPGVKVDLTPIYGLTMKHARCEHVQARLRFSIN

As to `CCC#Cc1cn([C@@H]2S[C@H](CO)[C@@H](O)[C@H]2O)c2ncnc(N)c12` [Compound 1i, (2R,3R,4S,5R)-2-(4-Amino-5-(but-1-yn-1-yl)-7H-pyrrolo[2,3-d]pyrimidin-7-yl)-5-(hydroxymethyl)tetrahydrothiophene-3,4-diol], the melting point was in the range of 161 to 162 °C. 1.34 µM corresponded to half-maximal inhibition at DYRK1B (IC50). The Ki on DYRK1B (by Cheng-Prusoff equation) was found to be 1.34 µM. This compound returned an IC50 at TRKA of 0.573 µM. Also, the inhibition constant Ki at TRKA (by Cheng-Prusoff equation) worked out at 1.15 µM. Further, at DYRK1A, inhibition was half-maximal at 2.98 µM (IC50). The compound further displayed a Ki on DYRK1A (by Cheng-Prusoff equation) of 5.96 µM. Moreover, the half-inhibitory concentration (IC50) with SNU638 is over 50 µM. The compound further came in with an IC50 with SK-HEP-1 of over 50 µM. Also, the IC50 with PC-3 was over 50 µM. The same compound came in with an IC50 in the series on HCT116 of over 50 µM. In addition, in the series with MDA-MB-231, the IC50 was over 50 µM. In the series on A549, this compound came in with a half-inhibitory concentration (IC50) of over 50 µM. At CK1δ, the IC50 worked out at 0.43 µM and the Ki came out at 0.43 µM.

For the compound `CC(C)(C)C#Cc1cn([C@@H]2S[C@H](CO)[C@@H](O)[C@H]2O)c2ncnc(N)c12` [Compound 1j, (2R,3R,4S,5R)-2-(4-Amino-5-(3,3-dimethylbut-1-yn-1-yl)-7H-pyrrolo[2,3-d]pyrimidin-7-yl)-5-(hydroxymethyl)tetrahydrothiophene-3,4-diol], the melting point fell in the range of 144 to 146 °C. The compound further returned an IC50 against DYRK1B of over 10 µM. At TRKA, 0.958 µM corresponded to half-maximal inhibition (IC50). Moreover, the concentration for half-maximal inhibition (IC50) at DYRK1A was over 10 µM. The IC50 with SNU638 is over 50 µM. The compound further registered a concentration for half-maximal inhibition (IC50) in the series with SK-HEP-1 of over 50 µM. Besides, the 50% inhibitory concentration (IC50) with PC-3 was over 50 µM. Moreover, the IC50 in the series with HCT116 was over 50 µM. The compound also gave a concentration for half-maximal inhibition (IC50) in the series with MDA-MB-231 of 29.6 µM. Further, the 50% inhibitory concentration (IC50) with A549 was over 50 µM. Besides, on CK1δ, half-maximal inhibition (IC50) was put at 1.32 µM and the Ki came out at 1.32 µM.

`Nc1ncnc2c1c(C#CC1CC1)cn2[C@@H]1S[C@H](CO)[C@@H](O)[C@H]1O` [Compound 1k, (2R,3R,4S,5R)-2-(4-Amino-5-(cyclopropylethynyl)-7H-pyrrolo[2,3-d]pyrimidin-7-yl)-5-(hydroxymethyl)tetrahydrothiophene-3,4-diol] gave a melting point of 166 to 168 °C. The same compound returned an IC50 against DYRK1B of over 10 µM. On TRKA, this compound registered a concentration for half-maximal inhibition (IC50) of 0.393 µM. This compound also yielded an IC50 at DYRK1A of over 10 µM. In the series on SNU638, the IC50 is over 50 µM. Moreover, the IC50 with SK-HEP-1 is 8.31 µM. Besides, the IC50 in the series with PC-3 was over 50 µM. In the series with HCT116, this compound gave a half-maximal inhibitory concentration (IC50) of over 50 µM. For the same compound, 30.6 µM corresponded to half-maximal inhibition in the series with MDA-MB-231 (IC50). The same compound had an IC50 in the series with A549 of over 50 µM. On CK1δ, this compound gave an IC50 of 1.78 µM and a Ki of 1.78 µM.

Consider `CC(=O)N1CCN(c2ccc(OCC3COC(Cn4ccnc4)(c4ccc(Cl)cc4Cl)O3)cc2)CC1` (centres unmarked) [Ketoconazole, reference compound], for which the values for the amount remaining at 15 min, 0.1 μM at CYP2C19, on CYP1A2 and at CYP2C9 were 93.6%, 95.7% and 93.6%, respectively.

Regarding `COc1cccc2c1C(=O)c1c(O)c3c(c(O)c1C2=O)C[C@@](O)(C(=O)CO)C[C@@H]3O[C@H]1C[C@H](N)[C@H](O)[C@H](C)O1` [doxorubicin, reference compound], the figures for the IC50 in the series on KM12 and in the series with ACHN were 0.12 µM and 0.04 µM, respectively.
